Legend:
pancreatic acinar cells [1] = assay: Correlation between EGF concentration and induction of colonies containing insulin-positive cells; type: cell-based, mouse; conditions: 0.5% fetal bovine serum (FIG. 9)
Description: The recovered cells were suspended in a nutrition medium (e.g., RPMI-1640) containing 0.5% fetal bovine serum (Sigma) and 20 ng/ml epidermal growth factor (EGF) (R&D Systems: Minneapolis, Minn., USA), and inoculated in cell culture dishes which were less adhesive for cells (Nalge Nunc: Rochester, N.Y., USA) and cultured in an incubator set at 37° C., 5% CO2. The pancreatic acinar cells, at early stages of culture, formed cell clusters having smooth boundaries consisting of congregated cells and, and kept themselves floating (FIG. 1A), and, at around day 3, adhere to the bottom of the dish and started to extend on it. After about 7 days, they formed relatively small cell aggregates (colonies) consisting of several dozen to several hundred cells (FIG. 1B). The cell density upon inoculation, which ranged from 1- to 10-fold dilution of that in pre-culture, had no influence on the form of the colonies observed.
In accordance with the method described in Example 1, except that the concentration of fetal bovine serum was fixed at 0.5% and EGF was used as the growth factor at a concentration of 0, 2, 20 or 200 ng/ml, main culture of pancreatic acinar cells were performed to assess the effect of EGF on induction of aimed cells (cells forming colonies containing insulin-positive cells as shown in FIG. 1B).

pancreatic acinar cells [2] = assay: Effect of growth factors on insulin-positive cell induction in main culture of pancreatic acinar cells; type: cell-based, mouse; conditions: day 7 of culture, EGF 20 ng/ml, HGF, FGF7 and FGF10 10 ng/ml, GLP-1 30 ng/ml; for proportion of insulin-positive cells: rank among growth factors (FIG. 8B)
Description: Eight-week old male mice (C57B1/6Cr Slc)(Japan SLC, Inc.: Hamamatsu, Japan) were anesthetized with 50 mg/kg of Nembtal (Dainippon Pharma Co., Ltd.: Osaka, Japan) and subjected to laparotomy. The choledoch duct was ligated near the position where it opens to the duodenum. Using a 27G winged needle (Terumo Corporation: Tokyo, Japan), 2-3 ml of Hank's buffer containing 0.05% collagenase P (Roche: Basel, Switzerland) and 10% fetal bovine serum was infused from the liver side. The pancreas, now swollen, was extracted and digested in 5 ml of Hank's buffer per pancreas for 18 minutes at 37° C. The digested pancreas then was made to pass through a 14G indwelling needle in both directions twice to disperse the pancreatic cells, which washed well with Hank's buffer containing 0.1% bovine serum albumin (Sigma: Saint Louis, Mo., USA). The pancreatic cells thus obtained were suspended in a mixed solution (solution A) consisting of 8.3% Ficoll 400 (Amersham Bioscience: Uppsala, Sweden) and 16.7% Conray 400 (Daiichi Pharmaceutical, Tokyo, Japan), and after a 87.5%-diluted solution of solution A and then a 50%-diluted solution of solution A were placed on it in the order, centrifuged (2,000 rpm, 10 min). Pancreatic acinar cells condensed in the spun down, lowest fraction were collected, and to them was added a sterilized 0.1 mg/ml solution of dithizone (1,5-diphenylthiocarbazone) (Nacalai Tesque, Inc.: Kyoto, Japan) and stained for 15 minutes at 37° C. in order to remove contaminating mature B-cells. Mature B-cells are stained red with dithizone, which is a chelating agent for zinc, for high concentration of insulin occurs in mature B-cells in the form of a hexamer via zinc (Latif et al., Transplantation, 45:827(1988)). By removing red-stained mature B-cells under a stereomicroscope, a fraction containing highly concentrated pancreatic acinar cells were obtained. […]

| Substance | effect on induction of aimed cells (cells forming colonies containing insulin-positive cells) (pancreatic acinar cells [1]; EGF 20 ng/ml) | effect on induction of aimed cells (cells forming colonies containing insulin-positive cells) (pancreatic acinar cells [1]; EGF 200 ng/ml) | total cell count (growth of the cells) (pancreatic acinar cells [2]; rank among growth factors (FIG. 8A)) | proportion of insulin-positive cells (pancreatic acinar cells [2]) |
| --- | --- | --- | --- | --- |
| epidermal growth factor [EGF, epidermal growth factor (R&D Systems), growth factor added to the culture medium] | remarkable effect | remarkable effect | most effective | most effective |
| hepatocyte growth factor [HGF] |  |  |  | this was followed by FGF10 and HGF |

From US20070231897A1, “Induction of Insulin Secreting Cell” (KYOTO UNIVERSITY, priority 2004, published 2007)
